Test results taken from ChEMBL document CHEMBL6127087 (Eur J Med Chem, 2024).
The source made the active and inactive calls. The calls are words filed in the database; no cut-off is given here.

Tests used:
Mus musculus = assay: Anti-inflammatory activity in LPS-induced male C57BL/6 mouse model of acute […] injury assessed as reduction in TNF-alpha level in BALF at 2 to 6 mg/kg, IG preadministered with compound for 7 days followed by LPS administration and measured after 24 hrs by ELISA; assay type: functional, organism-based; conditions: dose 2-6 mg/kg, time 8.0 day
[1] = target: P2Y purinoceptor 2 (Homo sapiens) (UniProt P41231); assay: Antagonist activity at human P2Y2R stably expressed in HEK293 cells assessed as inhibition of UTP-induced IP3 accumulation preincubated with compound for 30 mins followed by UTP addition by ELISA; assay type: functional, cell-based
P2Y purinoceptor 2 (Homo sapiens), sequence (P41231 whole entry): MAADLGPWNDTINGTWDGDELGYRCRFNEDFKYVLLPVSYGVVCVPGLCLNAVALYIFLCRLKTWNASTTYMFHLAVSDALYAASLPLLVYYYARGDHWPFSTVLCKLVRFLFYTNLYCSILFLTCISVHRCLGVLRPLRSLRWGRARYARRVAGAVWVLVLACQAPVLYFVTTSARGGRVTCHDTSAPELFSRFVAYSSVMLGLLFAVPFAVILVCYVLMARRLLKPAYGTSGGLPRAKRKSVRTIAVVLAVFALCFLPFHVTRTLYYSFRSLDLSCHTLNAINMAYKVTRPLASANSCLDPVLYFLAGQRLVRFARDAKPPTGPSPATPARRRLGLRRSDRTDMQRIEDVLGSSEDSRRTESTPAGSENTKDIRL

[2] = Tmax in male Sprague-Dawley rat at 20 mg/kg, po measured after 24 hrs by LC-MS/MS analysis; assay type: ADME, organism-based; conditions: male, Sprague-Dawley, in vivo, read-out: Tmax (converted)

Activity [1]: inactive | Tmax [2]: 46 min
Structure (SMILES): O=C(O)CCC(=O)N1N=C(c2ccc[nH]2)CC1c1cnc2ccccc2c1 (stereo not drawn)
Activity (Mus musculus): Active
